Where two headings read alike, the source gives them in different places. Square brackets hold non-standard residues; d marks the D form. Peptide text beside a SMILES is read from it. * marks the point of attachment. Gly(N-(2R-Ph-propyl)) = C[C@@H](CNCC(=O)O)c1ccccc1; Piperidin1yl(4-NH2,4-COOH) = NC1(C(=O)O)CCN(*)CC1
Legend:
[1] = Solubility of the active ingredient (statement); format: physicochemical; settings: free compound, background statement
[2] = Protocol: High performance liquid chromatography (HPLC) was determined on an Agilent 1200DAD high pressure liquid chromatograph (Sunfire C18 150×4.6 mm column) and Waters 2695-2996 high pressure liquid chromatograph (Gimini C18 150×4.6 mm column).
The study period was 20 days.

Structure (SMILES): CC(C)C[C@@H](NC(=O)[C@@H](Cc1ccccc1)NC(=O)CNC[C@H](C)c1ccccc1)C(=O)N[C@H](CCCCN)C(=O)N1CCC(N)(C(=O)O)CC1 [Compound A, 4-amino-N—[N^2—[N—[N—[N-((R)-2-phenylpropyl)glycyl]-D-phenylalanyl]-D-leucyl]-D-lysyl]piperidine-4-carboxylic acid] (H-[Gly(N-(2R-Ph-propyl))][dF][dL][dK]-{Piperidin1yl(4-NH2,4-COOH)})
- Solubility (in words) [1]: low solubility

Structure (SMILES): CC(C)C[C@@H](NC(=O)[C@@H](Cc1ccccc1)NC(=O)CNC[C@H](C)c1ccccc1)C(=O)N[C@H](CCCCN)C(=O)N1CCC(N)(C(=O)O)CC1.Cl.Cl.Cl [Hydrochloride (1:3), 4-Amino-N—[N^2—[N—[N—[N-((R)-2-phenylpropyl)glycyl]-D-phenylalanyl]-D-leucyl]-D-lysyl]piperidine-4-carboxylic acid hydrochloride (1:3)] (H-[Gly(N-(2R-Ph-propyl))][dF][dL][dK]-{Piperidin1yl(4-NH2,4-COOH)})
- Purity % ([2]; 40° C., 5 days): 96.54%
- Purity % ([2]; 40° C., 10 days): 96.42%
- Purity % ([2]; 40° C., 20 days): 96.41%
- Purity % ([2]; 60° C., 5 days): 96.42%
- Purity % ([2]; 60° C., 10 days): 96.43%
- Purity % ([2]; 60° C., 20 days): 96.41%
- Purity % ([2]; 4500 Lux, 0 day (start value)): 96.50%
- Purity % ([2]; 4500 Lux, 5 days): 95.57%
- Purity % ([2]; 4500 Lux, 10 days): 94.27%
- Purity % ([2]; 4500 Lux, 20 days): 94.24%
- Stability of the salt (conclusion in words) ([2]; lighting, 40° C. and 60° C., 20 days): good stability
